According to publication PMC3463587, “A Series of Beta-Carboline Derivatives Inhibit the Kinase Activity of PLKs” (PLoS ONE, 2012):

Legend:
HeLa cells [1] = test: FACS cell cycle analysis (PI), HeLa; assay type: cell-based, human
Description: (§1) It is well documented that PLK1 is involved in multiple steps in mitosis, such as centrosome maturation and establishment of bipolar spindle. […] Therefore, the down-regulation of PLK1 would change the distribution of cells in different cell cycle stages. To test this possibility, fluorescence-activated cell sorter (FACS) analysis was used to analyze the DNA content of HeLa cells treated with the identified PLK1 inhibitors, DH281, DH285, and DH287. HeLa cells were first incubated in the absence and presence of these compounds at different concentrations (0, 0.12, 0.48 and 1.92 µM) for 48 hr. […] Treatment with a lower concentration of the compounds (0.12 and 0.48 µM) also led to an obvious increase of the cell population in G2/M phase (Figure 4A, Table 3). Moreover, the proportion of HeLa cells in G2/M phase increased over time after incubation in the presence of 0.8 µM of DH281, DH285 and DH287 (Figure 4B, Table 4). […] We also determined the cell cycle distribution of the non-cancer MRC5 cells after treatment with DH281 at different concentrations. […] It is also possible that inhibition of the kinase activity of the whole PLK family by beta-carboline compounds results in the defect in cell cycle progression.
[…] The floated and attached cells were treated by trypsinization and washed with cold PBS. The cells were then fixed with 70% (v/v) ethanol at 4°C overnight. The fixed cells were washed twice with PBS and incubated with 50 µg/mL RNase A (Sigma, USA) and 50 µg/mL propidium iodide (PI) (Sigma, USA) at 37°C for 30 min.

PLK2 = PLK2 (Homo sapiens, UniProt Q9NYY3); test: In vitro kinase assay PLK2; assay type: biochemical
PLK2, sequence (Q9NYY3 whole entry, species assumed): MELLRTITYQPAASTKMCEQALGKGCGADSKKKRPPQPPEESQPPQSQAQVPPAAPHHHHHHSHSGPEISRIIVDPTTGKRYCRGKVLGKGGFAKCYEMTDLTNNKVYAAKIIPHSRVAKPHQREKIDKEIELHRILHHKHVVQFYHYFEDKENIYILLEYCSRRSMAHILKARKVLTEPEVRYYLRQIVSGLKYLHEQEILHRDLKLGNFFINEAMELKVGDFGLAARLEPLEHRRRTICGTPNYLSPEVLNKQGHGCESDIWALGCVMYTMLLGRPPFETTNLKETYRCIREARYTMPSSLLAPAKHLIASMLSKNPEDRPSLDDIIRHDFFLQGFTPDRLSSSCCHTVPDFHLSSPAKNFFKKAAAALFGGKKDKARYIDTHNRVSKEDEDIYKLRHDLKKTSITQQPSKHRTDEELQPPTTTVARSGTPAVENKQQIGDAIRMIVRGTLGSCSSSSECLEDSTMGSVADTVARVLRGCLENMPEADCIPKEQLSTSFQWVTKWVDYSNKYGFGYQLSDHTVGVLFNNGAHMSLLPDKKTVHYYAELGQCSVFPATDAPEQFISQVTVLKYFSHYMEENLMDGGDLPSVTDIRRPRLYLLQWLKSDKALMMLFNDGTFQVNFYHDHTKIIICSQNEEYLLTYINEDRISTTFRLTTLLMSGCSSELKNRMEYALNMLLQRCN
Description: (§2) The inhibition of PLK1 kinase activity was assessed using the Cyclex PLK1 Assay/Inhibitor Screening Kit (MBL International Corporation, Japan). The kit includes anti-phospho-threonine polyclonal antibody (PPT-07) and peroxidase coupled anti-rabbit IgG antibody as a reporter in a 96-well ELSIA format. Compounds were used at the concentrations from 10^− ^3 to 10^2 µg/ml and the absorbance was determined at 450 nm. A similar protocol was used to determine the kinase inhibition for PLK2, PLK3, Aurora A and Aurora B. The kinase activity of CDK1/cyclinB and CDK2/cyclinE was analyzed in the presence of serially diluted inhibitors. For each reaction, 20 ng of recombinant kinase was used and […] casein from bovine milk (Sigma) was added as the kinase substrate. The kinase reaction buffer contains 8 mM MOPS pH7.0, 0.2 mM EDTA, 0.1 mg/ml histone H1, 10 mM and MgAcetace and [γ^− ^33P-ATP] (500 cpm/pmol). The reaction was initiated by adding the MgATP mix. After incubation for 40 minutes at room temperature, the reaction was stopped by the addition of 3% phosphoric acid solution. We spotted 10 µl of the reaction mixture onto a P30 filtermat and washed three times for 5 min with 75 mM phosphoric acid and once with methanol prior to drying and scintillation counting.

HeLa cells [2] = test: MTT cell proliferation assay, HeLa; assay type: cell-based; settings: Homo sapiens, 48 hr
Source text: (§3) BI2536 was purchased from Selleck (Selleck, USA).

[3] = test system: cdc5-2 mutant yeast cells; test: Yeast growth inhibition (MIC), cdc5-2 mutant; settings: 25°C, 24 hr
Description: The Cdc5 kinase is the functional homologue of PLK1 in budding yeast and the incubation of cdc5-2 mutants at 37°C impairs the kinase activity and stops cell growth. […] We also compared the sensitivity of wild-type and cdc5-2 mutant cells to the selected compounds at different concentrations. […] The temperature sensitive cdc5-2 mutants and wild-type strains were used. […] After incubation at 25°C for 24 hr, the growth of the yeast cells was determined by measuring OD600.

Aurora-B = Aurora-B (Homo sapiens, UniProt Q96GD4); test: In vitro kinase assay Aurora B; assay type: biochemical
Aurora-B, sequence (Q96GD4 whole entry): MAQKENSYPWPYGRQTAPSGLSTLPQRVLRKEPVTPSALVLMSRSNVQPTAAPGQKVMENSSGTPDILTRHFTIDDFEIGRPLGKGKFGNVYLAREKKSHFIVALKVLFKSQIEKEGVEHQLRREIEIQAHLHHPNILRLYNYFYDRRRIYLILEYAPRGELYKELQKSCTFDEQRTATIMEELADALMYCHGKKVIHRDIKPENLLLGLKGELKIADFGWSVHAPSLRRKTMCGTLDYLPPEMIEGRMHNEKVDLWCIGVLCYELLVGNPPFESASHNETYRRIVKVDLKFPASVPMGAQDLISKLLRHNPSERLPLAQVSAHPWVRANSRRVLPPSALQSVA
Description: as §2

HeLa cells [4] = test: Immunofluorescence of spindle (anti-α-tubulin); assay type: cell-based, human; settings: 1.21 µM, 24 hr
Source text: PLK1 plays a pivotal role in centrosome maturation and spindle formation during mitosis. Thus, the down-regulation of PLK1 activity would prevent centrosome maturation as well as the formation of a bipolar spindle. Anti-α-tubulin antibody was used for immunofluorescence staining in order to examine the spindle structure in cells treated with the beta-carboline compounds.
HeLa cells were collected and then grown onto cover-slips. […] After washed with washing buffer (Beyotime, P0106) for 3 times, the cells were incubated with blocking buffer (Beyotime, P0102) for 60 min. The primary antibody anti-α-tubulin (Abcam) was used at 1∶200 dilutions; H&L (Cy5)-labeled secondary antibody was used at 1∶200 dilutions. The cover-slips were then mounted with PBS:glycerol (1∶1) mounting medium containing DAPI and examined under an inverted confocal microscope. Images were analyzed by the 3D image software Volocity (Improvision).

MG63 cells = test: MTT cell proliferation assay, MG63; assay type: cell-based; settings: Homo sapiens, MG-63, 48 hr
Source text: as §3

CDK2/cyclinE(h) = CDK2/cyclinE(h) (Homo sapiens, UniProt P24941); test: In vitro kinase assay CDK2/cyclinE (33P-ATP); assay type: biochemical
Description: as §2

HepG2 cells = test: MTT cell proliferation assay, HepG2; assay type: cell-based; settings: Homo sapiens, 48 hr
Source text: as §3

MRC5 cells [5] = test: cells; settings: Homo sapiens, MRC5, 48 h, read-out: IC50 MRC5, MTT, 48 hr, non-cancer cells
Description: All the beta-carboline derivatives were provided by Xinjiang Huashidan Pharmaceutical Co. Ltd. The culture media and fetal bovine serum (FBS) were purchased from Hyclone (Hyclone Laboratories Inc., USA). […] All the cell lines were obtained from the Cell Culture Centre, Institute of Basic Medical Science, Chinese Academy of Medical Science and incubated at 37°C supplied with 5% CO2. HeLa cells were grown in standard DMEM with 10% FBS.
MRC5, HeLa, HepG2, PC3 and MG63 cells were seeded at 3000–6000 cells/well (200 µl/well) in a 96-well plate and incubated overnight. Then different concentrations of compounds were added into the cell cultures with a final concentration of 0.1% DMSO and incubated for an additional 48 hr. After that, 22 µl MTT solution (5 mg/ml) was added into each well and incubated at 37°C for 4 hr.

MRC5 cells [6] = test: FACS cell cycle analysis (PI), MRC5; assay type: cell-based, Human; settings: 48 hr
Description: as §1
Tumor cells were exposed to vehicle (0.1% DMSO) or compounds at 0, 0.12, 0.48, and 1.92 µM for 48 hr or 0.8 µM for 24, 48, and 72 hr; MRC5 cells were exposed to compounds at 0, 0.12, 0.48, and 1.92 µM for 48 hr. The floated and attached cells were treated by trypsinization and washed with cold PBS. The cells were then fixed with 70% (v/v) ethanol at 4°C overnight. The fixed cells were washed twice with PBS and incubated with 50 µg/mL RNase A (Sigma, USA) and 50 µg/mL propidium iodide (PI) (Sigma, USA) at 37°C for 30 min.

SMILES	cells in G1 (HeLa cells [1]; 0.12 µM, 48 hr)	cells in G2 (G2/M) (HeLa cells [1]; 0.12 µM, 48 hr)	cells in S (HeLa cells [1]; 0.12 µM, 48 hr)	cells in G1 (HeLa cells [1]; 0.48 µM, 48 hr)	cells in G2 (G2/M) (HeLa cells [1]; 0.48 µM, 48 hr)	cells in S (HeLa cells [1]; 0.48 µM, 48 hr)	cells in G1 (HeLa cells [1]; 0.8 µM, 24 hr)	cells in G2 (G2/M) (HeLa cells [1]; 0.8 µM, 24 hr)	cells in S (HeLa cells [1]; 0.8 µM, 24 hr)	cells in G1 (HeLa cells [1]; 0.8 µM, 36 hr)	cells in G2 (G2/M) (HeLa cells [1]; 0.8 µM, 36 hr)	cells in S (HeLa cells [1]; 0.8 µM, 36 hr)	cells in G1 (HeLa cells [1]; 0.8 µM, 48 hr)	cells in G2 (G2/M) (HeLa cells [1]; 0.8 µM, 48 hr)	cells in S (HeLa cells [1]; 0.8 µM, 48 hr)	cells in G1 (HeLa cells [1]; 0.8 µM, 60 hr)	cells in G2 (G2/M) (HeLa cells [1]; 0.8 µM, 60 hr)	cells in S (HeLa cells [1]; 0.8 µM, 60 hr)	cells in G1 (HeLa cells [1]; 1.92 µM, 48 hr)	cells in G2 (G2/M) (HeLa cells [1]; 1.92 µM, 48 hr)	further results
Cc1c2c(cc[n+]1Cc1ccccc1)c1ccc(OCc3ccccc3)cc1n2Cc1ccccc1 [DH287]	77.3%	6.86%	15.9%	64.8%	14.2%	21.0%	64.5%	10.2%	25.3%	54.6%	15.9%	29.5%	49.3%	13.0%	37.8%	30.6%	16.6%	52.8%	51.9%	21.0%	IC50 (PLK2): 4.3 µM; IC50 (HeLa cells [2]): 1820 ± 150 nM; difference in the MICs, cdc5-2 compared to wild-type cells [3]: 2 to 4 fold; IC50 (Aurora-B): 24.7 µM; spindle structure (HeLa cells [4]): induced formation of monopolar spindles; IC50 (MG63 cells): 1790 ± 290 nM; IC50 (CDK2/cyclinE(h)): > 100 µM; IC50 (HepG2 cells): 10.7 ± 0.31 µM; IC50 (MRC5 cells [5]): 3.03 µM
Cc1c2c(cc[n+]1Cc1ccccc1)c1ccc(OCc3ccc(F)cc3)cc1n2CCCc1ccccc1 [DH281]	70.5%	10.1%	19.4%	55.3%	14.4%	30.3%	64.1%	10.2%	25.7%	53.4%	18.9%	27.7%	42.4%	16.6%	41.1%	33.9%	14.6%	51.6%	38.4%	26.7%	cells in G1 (MRC5 cells [6]; MRC5, 0.12 µM): 75.3%; cells in G2 (G2/M) (MRC5 cells [6]; MRC5, 0.12 µM): 15.5%; cells in S (MRC5 cells [6]; MRC5, 0.12 µM): 9.18%; cells in G1 (MRC5 cells [6]; MRC5, 0.48 µM): 68.2%; cells in G2 (G2/M) (MRC5 cells [6]; MRC5, 0.48 µM): 14.6%; cells in S (MRC5 cells [6]; MRC5, 0.48 µM): 17.3. %; cells in G1 (MRC5 cells [6]; MRC5, 1.92 µM): 59.3%; cells in S (MRC5 cells [6]; MRC5, 1.92 µM): 25.6%; cells in S (HeLa cells [1]; 1.92 µM, 48 hr): 34.9%; IC50 (PLK2): 3.82 µM; IC50 (HeLa cells [2]): 510 ± 80 nM; difference in the MICs, cdc5-2 compared to wild-type cells [3]: 2 to 4 fold; spindle structure (HeLa cells [4]): induced formation of monopolar spindles; IC50 (MG63 cells): 1600 ± 150 nM; IC50 (CDK2/cyclinE(h)): > 100 µM; IC50 (HepG2 cells): 2.24 ± 0.04 µM; IC50 (MRC5 cells [5]): 4.73 ± 0.51 µM
